System: thrombotic occlusion of the right carotid artery
Experiment: In vivo rat ferric chloride assay measuring thrombotic occlusion
Parameters: species or system Male Sprague-Dawley rats
Conditions: i.v. dose 1 μg/kg/min, FeCl3, rats
Description: Applicants have conducted in vivo studies of the compounds claimed herein using the following rat ferric chloride assay.
In the assay used to determine in vivo activity of the thrombin inhibitors or the invention, Male Sprague-Dawley rats (body weights 200-350 grams) were anesthetized with dial-urethane solution (0.1 ml/100 gm body weight i.p.), and a lateral tail vein was cannulated with a 23 gauge needle connected to a 12 inch length of PE50 tubing. The tubing was attached to a 3-way valve by a tubing adapter. Saline (control) or test compound, as appropriate, was administered via the tail vein catheter. A tracheostomy was performed with a 0.75 inch length of PE205 tubing. The right carotid artery was exposed and a 1.3 mm diameter Doppler flow probe was placed on the vessel. Body temperature was maintained at 37° C. using a heat lamp.
Rats (8-10/group) were randomized to continuous intravenous infusions of saline or test compound administered via the tail vein at a rate of 0.028 ml/min. Treatment infusions were initiated 120 min before the placement of a 3 mm square piece of Whatman No. 1 filter paper saturated with 35% FeCl3 onto the exposed carotid artery distal to the flow probe. […] Time to occlusion was defined as the time from application of FeCl3 to thrombotic occlusion of the vessel.

SMILES	Incidence of occlusion
C[C@@H](N[C@@H](C(=O)N1CCC[C@H]1C(=O)NC[C@H]1CC[C@H](N)CC1)C(c1ccccc1)c1ccccc1)C(=O)O [drawing 48]	1/6
N[C@H]1CC[C@H](CNC(=O)[C@@H]2CCCN2C(=O)[C@H](NCC(=O)O)C(c2ccccc2)c2ccccc2)CC1 [drawing 47]	1/6

Same assay, conditions: i.v. dose 10 μg/kg/min, FeCl3, rats

SMILES	Incidence of occlusion
C[C@@H](N[C@@H](C(=O)N1CCC[C@H]1C(=O)NC[C@H]1CC[C@H](N)CC1)C(c1ccccc1)c1ccccc1)C(=O)O [drawing 48]	0/6
N[C@H]1CC[C@H](CNC(=O)[C@@H]2CCCN2C(=O)[C@H](NCC(=O)O)C(c2ccccc2)c2ccccc2)CC1 [drawing 47]	0/6

Molecular target: T1, human a-thrombin (Homo sapiens, UniProt P00734)
T1 construct: human a-thrombin
Experiment: In vitro assay for determining proteinase inhibition: human a-thrombin
Type: biochemical
Conditions: not given
Description: Assays of human a-thrombin and bovine trypsin were performed at 25° C. in 0.05M TRIS buffer pH 7.4, 0.15M NaCl, 0.1% PEG. Trypsin assays also contained 1 mM CaCl2.
Concentrations of stock solutions of Z-GPR-afc were determined from measurements of absorbance at 380 nm of the 7-amino-4-trifluoromethyl coumarin produced upon complete hydrolysis of an aliquot of the stock solution by thrombin.
Activity assays were performed by diluting a stock solution of substrate at least tenfold to a final concentration ≥0. I Km into a solution containing enzyme or enzyme equilibrated with inhibitor. Times required to achieve equilibration between enzyme and inhibitor were determined in control experiments. Initial velocities of product formation in the absence (Vo) or presence of inhibitor (Vi) were measured. Assuming competitive inhibition, and that unity is negligible compared Km /[S], […] (where [S], [I], and e respectively represent the total concentrations, of substrate, inhibitor and enzyme), the equilibrium constant (Ki) for dissociation of the inhibitor from the enzyme can be obtained from the dependence of Vo /Vi on [I] shown in equation 1.

SMILES	Ki [nM]
N[C@H]1CC[C@H](CNC(=O)[C@@H]2CCCN2C(=O)C2(O)c3ccccc3Sc3ccccc32)CC1	3
N[C@H]1CC[C@H](CNC(=O)[C@@H]2CCCN2C(=O)[C@@H](Cc2ccccc2)NS(=O)(=O)Cc2ccccc2)CC1	0.4

Same assay, conditions: Table 1, part headed Ki (NM); read-out: Ki vs thrombin

SMILES	Ki [nM]
CC(C)(C)OC(=O)N[C@@H](C(=O)N1CCC[C@H]1C(=O)NC[C@H]1CC[C@H](N)CC1)c1ccccc1	6.8
CC(C)(C)OC(=O)N[C@H](CCc1ccccc1)C(=O)N1CCC[C@H]1C(=O)NC[C@H]1CC[C@H](N)CC1	50
N[C@H]1CC[C@H](CNC(=O)[C@@H]2CCCN2C(=O)[C@@H](Cc2c[nH]c3ccccc23)NC(=O)OCc2ccccc2)CC1	16

The remaining lines, values ahead:

Ki [nM]	SMILES
15	N[C@H]1CC[C@H](CNC(=O)[C@@H]2CCCN2C(=O)[C@@H](Cc2ccccc2)NC(=O)OCc2ccncc2)CC1
6	CC(C)(C)OC[C@@H](NC(=O)OC(C)(C)C)C(=O)N1CCC[C@H]1C(=O)NC[C@H]1CC[C@H](N)CC1 [BocNH, CH2 O-tBu]
2.3	CC(C)(C)C[C@@H](NC(=O)OCc1ccccc1)C(=O)N1CCC[C@H]1C(=O)NC[C@H]1CC[C@H](N)CC1 [CbzNH, CH2 -tBu]
12	CC(C)(C)OC(=O)N[C@H](CC1CCCCC1)C(=O)N1CCC[C@H]1C(=O)NC[C@H]1CC[C@H](N)CC1

Same assay, conditions: Table 1; read-out: Ki vs Thrombin

SMILES	Ki [nM]
N[C@H]1CC[C@H](CNC(=O)[C@@H]2CCCN2C(=O)[C@H](O)Cc2ccccc2)CC1	63
N[C@H](Cc1ccccc1)C(=O)N1CCC[C@H]1C(=O)NC[C@H]1CC[C@H](N)CC1 [PhCH2, NH2]	3.4
N[C@H]1CC[C@H](CNC(=O)[C@@H]2CCCN2C(=O)[C@@H](Cc2ccccc2)NCCc2ccccc2)CC1	4
CC(C)(C)OC(=O)N[C@@H](C(=O)N1CCC[C@H]1C(=O)NC[C@H]1CC[C@H](N)CC1)[C@@H](OC(C)(C)C)c1ccccc1	8
CS(=O)(=O)N[C@H](Cc1ccccc1)C(=O)N1CCC[C@H]1C(=O)NC[C@H]1CC[C@H](N)CC1 [PhCH2, CH3 SO2 NH]	17
N[C@H]1CC[C@H](CNC(=O)[C@@H]2CCCN2C(=O)CCC2CCCCC2)CC1 [C6 H11 CH2, H]	150
CC(=O)N1CCC[C@H]1C(=O)NC[C@H]1CC[C@H](N)CC1 [H, H]	> 10000
CC(C)(C)OC(=O)N[C@H](Cc1ccccc1)C(=O)N1CCC[C@H]1C(=O)NC[C@H]1CC[C@H](N)CC1	9.4
N[C@H]1CC[C@H](CNC(=O)[C@@H]2CCCN2C(=O)CCc2ccccc2)CC1 [PhCH2, H]	680

Further lines, results first:

Ki [nM]	SMILES
200	CC(C)(C)OC(=O)N[C@@H](C(=O)N1CCC[C@H]1C(=O)NC[C@H]1CC[C@H](N)CC1)C(OC(C)(C)C)c1ccccc1 (some centres unmarked)
27	N[C@H](Cc1ccc2ccccc2c1)C(=O)N1CCC[C@H]1C(=O)NC[C@H]1CC[C@H](N)CC1
170	CC(=O)N[C@H](Cc1ccccc1)C(=O)N1CCC[C@H]1C(=O)NC[C@H]1CC[C@H](N)CC1
30	N[C@H](Cc1cccnc1)C(=O)N1CCC[C@H]1C(=O)NC[C@H]1CC[C@H](N)CC1
3.7	N[C@H]1CC[C@H](CNC(=O)[C@@H]2CCCN2C(=O)[C@@H](Cc2ccccc2)NC(=O)OCc2ccccc2)CC1
1.5	N[C@H](Cc1ccc(Cl)c(Cl)c1)C(=O)N1CCC[C@H]1C(=O)NC[C@H]1CC[C@H](N)CC1 [3,4-Cl2PhCH2, NH2]
2.9	CN[C@H](Cc1ccc(Cl)c(Cl)c1)C(=O)N1CCC[C@H]1C(=O)NC[C@H]1CC[C@H](N)CC1 [3,4-Cl2PhCH2, CH3 NH]
152	N[C@H]1CC[C@H](CNC(=O)[C@@H]2CCCN2C(=O)C2Cc3ccccc3CN2)CC1 (some centres unmarked)
2.3	CN[C@H](CC1CCCCC1)C(=O)N1CCC[C@H]1C(=O)NC[C@H]1CC[C@H](N)CC1
3	N[C@H]1CC[C@H](CNC(=O)[C@@H]2CCCN2C(=O)[C@@H](CC2CCCCC2)NS(=O)(=O)CC(F)(F)F)CC1
414	N[C@H]1CC[C@H](CNC(=O)[C@@H]2CCCN2C(=O)CCc2ccc(Cl)c(Cl)c2)CC1 [3,4-Cl2PhCH2, H]

Same assay, conditions: Table 2, lower part; head Ki(nM) without target; read-out: Ki

Ki [nM]	SMILES
0.17	N[C@H]1CC[C@H](CNC(=O)[C@@H]2CCCN2C(=O)[C@H](NCC(=O)O)C(c2ccccc2)c2ccccc2)CC1 [drawing 39]
55	N[C@H]1CC[C@H](CNC(=O)[C@@H]2CCCN2C(=O)C2COc3ccccc3O2)CC1 (some centres unmarked)
0.05	C[C@@H](N[C@@H](C(=O)N1CCC[C@H]1C(=O)NC[C@H]1CC[C@H](N)CC1)C(c1ccccc1)c1ccccc1)C(=O)O [drawing 41]
0.13	N[C@H]1CC[C@H](CNC(=O)[C@@H]2CCCN2C(=O)[C@H](NCC(=O)O)C(c2ccc(Cl)cc2)c2ccc(Cl)cc2)CC1

SMILES	Ki [nM]
N[C@H]1CC[C@H](CNC(=O)[C@@H]2CCCN2C(=O)C2(O)c3ccccc3-c3ccccc32)CC1	1.5

Same assay, conditions: Table 2; read-out: Ki vs thrombin

SMILES	Ki [nM]
N[C@H]1CC[C@H](CNC(=O)[C@@H]2CCCN2C(=O)[C@@H](Cc2ccccc2)NCC(=O)O)CC1	1.3
CC(C)(C)C[C@@H](NS(=O)(=O)Cc1ccccc1)C(=O)N1CCC[C@H]1C(=O)NC[C@H]1CC[C@H](N)CC1	0.4
CC(C)(C)OC(=O)N[C@@H](C(=O)N1CCC[C@H]1C(=O)NC[C@H]1CC[C@H](N)CC1)C(c1ccccc1)c1ccccc1	0.102

Now from value to compound:

Ki [nM]	SMILES
0.12	N[C@@H](C(=O)N1CCC[C@H]1C(=O)NC[C@H]1CC[C@H](N)CC1)C(c1ccccc1)c1ccccc1
0.05	CC(C)(C)OC[C@@H](NS(=O)(=O)CC12CCC(CC1=O)C2(C)C)C(=O)N1CCC[C@H]1C(=O)NC[C@H]1CC[C@H](N)CC1 (some centres unmarked)
2	N[C@H]1CC[C@H](CNC(=O)[C@@H]2CCCN2C(=O)CC(c2ccccc2)c2ccccc2)CC1
0.1	CC1(C)C2CCC1(CS(=O)(=O)N[C@H](CC1CCCCC1)C(=O)N1CCC[C@H]1C(=O)NC[C@H]1CC[C@H](N)CC1)C(=O)C2 (some centres unmarked)

Same assay, conditions: compared with the other diastereomer

relative activity of diastereomers in a thrombin inhibition assay	SMILES
more active isomer	N[C@@H](C(=O)N1CCC[C@H]1C(=O)NC[C@H]1CC[C@H](N)CC1)C(c1ccccc1)c1ccccc1 (single isomer, unassigned) [Example 7 less polar diastereomer, trans-4-Aminocyclohexylmethyl L- and D-(3,3)-diphenyl alanyl-L-proline amide]
more active isomer	N[C@H]1CC[C@H](CNC(=O)[C@@H]2CCCN2C(=O)[C@H](NS(=O)(=O)Cc2ccccc2)C(c2ccccc2)c2ccccc2)CC1 (single isomer, unassigned) [Example 9 less polar diastereomer, trans-4-Amino-cyclohexylmethyl N-(benzylsulfonyl)-D and L-3,3-diphenylalanyl-L-proline amide]
